Reference: patent US4155909A, “2-Alkyl nicotinoids and processes for their production” (priority 1977, dated 1979)
Several values for one entry are separate records, joined by “and”; a condition that tells them apart may be missing. Equal entries are not always repeated.

How the values were obtained:
mammals = conditions: Haglid et al., compared with nicotine; cited from earlier work
Aphids = test: Aphid spray test on replicate ivy cuttings infested with Aphids; type: in vivo; conditions: for Avg. % Dead / % Dead / Insecticidal Effectiveness: aphids; for Avg. % Dead: average of 3 replicates; for Avg. % Dead / % Dead / No. of Aphids Alive / No. of Aphids Dead: 5 ml sprayed, 18 hours; for % Dead / No. of Aphids Alive / No. of Aphids Dead: per replicate (1, 2, 3); for Insecticidal Effectiveness: as compared to nicotine (100%); for No. of Aphids Alive / No. of Aphids Dead: 100 mg in 10 ml ethanol + 40 ml water with surfactant
Experimental: A 100 mg sample of the candidate compound was dissolved in 10 ml absolute ethanol. To the solution was added 40 ml tap water containing 0.5 ml of 1% surfactant. A 5 ml sample of each solution was sprayed on to replicate ivy cuttings infested with Aphids. The results, tabulated below in Table I were recorded 18 hours following the application of the sprays. […]
(§1) In the first column, the LD50 of the compounds in mice is a measure of their mammalian toxicity. The second column illustrates the effectiveness of the candidate compounds as insecticides as compared to nicotine, whereas the third column is the ratio of insecticidal effectiveness to mammalian toxicity.

[1] = Mammalian toxicity, LD50 in mice; type: in vivo, mouse; conditions: in vivo; mouse; measure of mammalian toxicity
Text: as §1

female house flies = test: Topical application to the notum of female house flies; type: in vivo; conditions: for Avg. % Dead / Percent Dead, Run 1 / Percent Dead, Run 2: house flies, 50 mg in 0.4 ml ethanol, 0.3 μl applied, 24 hours; for Avg. % Dead: average of Run 1 and Run 2; for insecticidal effectiveness in words: common houseflies, compared with nicotine
Experimental: A 50 mg sample of the candidate compound was dissolved on 0.4 ml absolute ethanol. A 0.3 μl sample of the solution was applied to the notum of female house flies which has been anesthetized with ether. Results were read twenty-four hours later.

mouse = test: Mammalian toxicity, LD50 in mice; type: in vivo; conditions: compared with nicotine
Text: as §1

Row | Compound | nicotinic / pharmacological activity in words (mammals) | Avg. % Dead (Aphids) [%] | % Dead (Aphids; 1080 min) | Insecticidal Effectiveness (Aphids) [%] | No. of Aphids Alive (Aphids) | No. of Aphids Dead (Aphids) | LD50 [1] [mg/kg] | % Dead (Aphids) [%] | Avg. % Dead (female house flies) [%] | Percent Dead, Run 1 (female house flies) [%] | Percent Dead, Run 2 (female house flies) [%] | insecticidal effectiveness in words (female house flies) | mammalian toxicity in words (mouse)
1 | Cc1ccncc1C1CCCN1C (centres unmarked) [4-methylnicotine] | little or no nicotinic activity | – | – | – | – | – | – | – | – | – | – | – | –
2 | Cc1ncccc1C1CCCCN1 (centres unmarked) [2-methylanabasine, 2-Methyl-3-(2-piperidinyl)pyridine] | – | 52 | 62% and 50% and 43% | 52 | 24 and 27 and 87 | 39 and 27 and 66 | 15.7 | – | – | – | – | – | –
3 | CN1CCC[C@H]1c1cccnc1 [l-nicotine, reference compound] | – | 100 | – | – | 0 | 45 and 27 and 39 | 0.26 | 100 | 100 | 100 | 100 | – | –
4 | Cc1ccc(C2CCCN2C)cn1 (centres unmarked) [6-methylnicotine] | identical in pharmacological activity to nicotine itself | – | – | – | – | – | – | – | – | – | – | – | –
5 | Cc1ncccc1C1CCCN1 (centres unmarked) [2-methylnornicotine, 2-Methyl-3-(2-pyrrolidinyl)pyridine] | – | 3 | 2% and 7% and 0% | 3 | 39 and 27 and 30 | 2 and 0 | 100 | – | 70 | 80 | 60 | only slightly less effective | –
6 | Cc1ncccc1C1CCCN1C (centres unmarked) [2-methylnicotine, 2-Methyl-3-(1-methyl-2-pyrrolidinyl)pyridine] | – | 6 | 4% and 5% and 8% | – | 54 and 38 and 55 | 2 and 5 | – | – | 100 | 100 | 100 | as effective an insecticide as nicotine itself | lower mammalian toxicity than nicotine
7 | Cc1ccc(C2CCCN2C)c(C)n1 (centres unmarked) [2,6-dimethylnicotine, 2,6-Dimethyl-3-(1-methyl-2-pyrrolidinyl)pyridine] | – | 6 | 0% and 13% and 4% | 6 | 32 and 20 and 87 | 0 and 3 and 66 | 41 | – | – | – | – | – | –
